Measured values as given in ChEMBL document CHEMBL4145512, “Design, synthesis and biological evaluation of new coumarin-dithiocarbamate hybrids as multifunctional agents for the treatment of Alzheimer's disease” (Eur J Med Chem, 2018).
The source made the active and inactive calls. The rule behind the calls is not given here.

Columns and labels:
Acetylcholinesterase [1] = biological target: T1, Acetylcholinesterase (Homo sapiens, UniProt P22303); experiment: Inhibition of human erythrocyte AChE using acetylthiocholine iodide as substrate preincubated for 6 mins followed by substrate addition measured up to 180 secs by Ellman's method
T1 sequence (P22303 whole entry): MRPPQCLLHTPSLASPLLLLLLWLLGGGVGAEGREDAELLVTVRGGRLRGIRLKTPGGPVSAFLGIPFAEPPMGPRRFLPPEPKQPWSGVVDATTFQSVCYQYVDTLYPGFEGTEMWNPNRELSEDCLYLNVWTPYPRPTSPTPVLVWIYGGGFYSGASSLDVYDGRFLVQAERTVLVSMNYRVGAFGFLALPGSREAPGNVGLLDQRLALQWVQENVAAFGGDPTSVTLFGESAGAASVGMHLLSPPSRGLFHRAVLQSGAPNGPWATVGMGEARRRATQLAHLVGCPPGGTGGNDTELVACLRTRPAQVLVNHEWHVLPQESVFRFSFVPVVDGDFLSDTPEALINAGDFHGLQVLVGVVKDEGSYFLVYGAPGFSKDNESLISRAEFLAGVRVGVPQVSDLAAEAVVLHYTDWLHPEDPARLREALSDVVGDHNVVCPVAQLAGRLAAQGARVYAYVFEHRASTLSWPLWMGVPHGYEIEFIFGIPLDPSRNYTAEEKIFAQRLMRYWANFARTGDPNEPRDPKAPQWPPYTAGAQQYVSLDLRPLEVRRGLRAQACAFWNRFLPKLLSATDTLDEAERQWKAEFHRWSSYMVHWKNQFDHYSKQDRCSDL

[2] = biological target: BuChE (butyrylcholinesterase) (Homo sapiens, UniProt P06276); experiment: Inhibition of human serum BuChE at 10 uM using S-butyrylthiocholine iodide as substrate preincubated for 6 mins followed by substrate addition measured up to 180 secs by Ellman's method relative to control; conditions: probe S-butyrylthiocholine iodide
Chain of BuChE (butyrylcholinesterase) (P06276 whole entry): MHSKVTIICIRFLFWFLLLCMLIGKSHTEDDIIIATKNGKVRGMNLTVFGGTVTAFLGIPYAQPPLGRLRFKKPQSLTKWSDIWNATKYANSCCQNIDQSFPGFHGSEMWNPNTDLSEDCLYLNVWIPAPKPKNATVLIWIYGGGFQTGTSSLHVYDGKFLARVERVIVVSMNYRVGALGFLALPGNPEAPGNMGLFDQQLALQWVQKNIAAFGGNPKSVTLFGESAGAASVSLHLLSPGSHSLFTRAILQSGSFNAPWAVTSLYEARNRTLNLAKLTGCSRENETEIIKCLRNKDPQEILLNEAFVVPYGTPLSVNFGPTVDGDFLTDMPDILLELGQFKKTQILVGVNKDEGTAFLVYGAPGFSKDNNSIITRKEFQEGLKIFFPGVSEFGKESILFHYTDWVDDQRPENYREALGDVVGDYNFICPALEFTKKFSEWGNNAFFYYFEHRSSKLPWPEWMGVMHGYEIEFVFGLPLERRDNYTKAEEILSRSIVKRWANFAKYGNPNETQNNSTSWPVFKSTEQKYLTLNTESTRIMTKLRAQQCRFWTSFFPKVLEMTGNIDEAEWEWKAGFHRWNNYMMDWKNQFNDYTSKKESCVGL

Acetylcholinesterase [3] = biological target: T1, Acetylcholinesterase; experiment: Inhibition of human erythrocyte AChE at 10 uM using acetylthiocholine iodide as substrate preincubated for 6 mins followed by substrate addition measured up to 180 secs by Ellman's method relative to control
Acetylcholinesterase [4] = biological target: T1, Acetylcholinesterase; experiment: Potency index, ratio of donepenzil IC50 to compound IC50 for human erythrocyte AChE
Acetylcholinesterase [5] = biological target: T1, Acetylcholinesterase; experiment: […] inhibition of human erythrocyte AChE using acetylthiocholine iodide as substrate preincubated for 6 mins followed by substrate addition measured up to 180 secs by Lineweaver-Burk plot analysis
[6] = Metal chelating activity assessed as compound-Fe3+ complex formation at 25 uM by UV-Vis spectrophotometry
[7] = Metal chelating activity assessed as association constant for compound-Fe3+ complex formation by Job's plot analysis
[8] = Cytotoxicity against human SH-SY5Y cells assessed as cell viability at 12.5 uM after 24 hrs by MTT assay relative to control; type: cell-based; conditions: read-out: Activity
[9] = Cytotoxicity against human SH-SY5Y cells assessed as cell viability at 25 uM after 24 hrs by MTT assay relative to control; type: cell-based; conditions: read-out: Activity
[10] = Cytotoxicity against human SH-SY5Y cells assessed as cell viability at 50 uM after 24 hrs by MTT assay relative to control; type: cell-based; conditions: read-out: Activity
[11] = Cytotoxicity against human SH-SY5Y cells assessed as cell viability at 100 uM after 24 hrs by MTT assay relative to control; type: cell-based; conditions: read-out: Activity
Mus musculus [12] = experiment: Toxicity in Kunming mouse assessed as change in water consumption at 1000 mg/kg, po observed continuously for the first 4 hrs and intermittently for next 24 hrs and occasionally thereafter for 14 days; type: organism-based; conditions: in vivo
Mus musculus [13] = experiment: Toxicity in Kunming mouse assessed as change in food consumption at 1000 mg/kg, po observed continuously for the first 4 hrs and intermittently for next 24 hrs and occasionally thereafter for 14 days; type: organism-based; conditions: in vivo
Mus musculus [14] = experiment: Toxicity in Kunming mouse assessed as reduction in body weight at 1000 mg/kg, po observed continuously for the first 4 hrs and intermittently for next 24 hrs and occasionally thereafter for 14 days; type: organism-based; conditions: in vivo
Mus musculus [15] = experiment: Toxicity in Kunming mouse assessed as death at 1000 mg/kg, po observed continuously for the first 4 hrs and intermittently for next 24 hrs and occasionally thereafter for 14 days; type: organism-based; conditions: in vivo
Mus musculus [16] = experiment: Cardiotoxicity in Kunming mouse at 1000 mg/kg, po measured at day 14 by microscopic analysis; type: toxicity, organism-based; conditions: in vivo
Mus musculus [17] = experiment: Hepatotoxicity in Kunming mouse at 1000 mg/kg, po measured at day 14 by microscopic analysis; type: toxicity, organism-based; conditions: in vivo
Mus musculus [18] = experiment: Nephrotoxicity in Kunming mouse at 1000 mg/kg, po measured at day 14 by microscopic analysis; type: toxicity, organism-based; conditions: in vivo
Mus musculus [19] = experiment: Antialzheimer activity in scopolamine induced po dosed Kunming mouse cognitive deficit model assessed as reduction in latency treated for 1 hr followed by training trial and subsequent addition of scopolamine at 30 mins post trial measured for 24 hrs interval; type: functional, organism-based
Mus musculus [20] = experiment: Antialzheimer activity in scopolamine induced po dosed Kunming mouse cognitive deficit model assessed as reduction in number of errors treated for 1 hr followed by training trial and subsequent addition of scopolamine at 30 mins post trial measured for 24 hrs interval; type: functional, organism-based
Mus musculus [21] = experiment: Antialzheimer activity in scopolamine induced Kunming mouse cognitive deficit model assessed as latency time at 20.6 mg/kg, po treated for 1 hr followed by training trial and subsequent addition of scopolamine at 30 mins post trial measured for 24 hrs interval; type: functional
Mus musculus [22] = experiment: Antialzheimer activity in scopolamine induced Kunming mouse cognitive deficit model assessed as latency time at 10.3 mg/kg, po treated for 1 hr followed by training trial and subsequent addition of scopolamine at 30 mins post trial measured for 24 hrs interval; type: functional
Mus musculus [23] = experiment: Antialzheimer activity in scopolamine induced Kunming mouse cognitive deficit model assessed as latency time at 5.2 mg/kg, po treated for 1 hr followed by training trial and subsequent addition of scopolamine at 30 mins post trial measured for 24 hrs interval; type: functional
Acetylcholinesterase [24] = biological target: T1, Acetylcholinesterase; experiment: Mixed type inhibition of human erythrocyte AChE at 12.5 to 50 nM using acetylthiocholine iodide as substrate preincubated for 6 mins followed by substrate addition measured up to 180 secs by Lineweaver-Burk plot analysis
[25] = Metal chelating activity assessed as compound-Cu2+ complex formation at 25 uM by UV-Vis spectrophotometry
[26] = Metal chelating activity assessed as compound-Fe2+ complex formation at 25 uM by UV-Vis spectrophotometry
[27] = Metal chelating activity assessed as compound-Zn2+ complex formation at 25 uM by UV-Vis spectrophotometry
in vitro = conditions: PAMPA
Description: Effective permeability at 25 ug/ml after 16 hrs by PAMPA

CCN(CC)C(=S)SCCOc1ccc2c(C)cc(=O)oc2c1
IC50 (Acetylcholinesterase [1]): 1940 nM
inhibition at 0.05 h, 10 µM [2]: 10.9%

Cc1cc(=O)oc2cc(OCCSC(=S)N(C)C)ccc12
IC50 (Acetylcholinesterase [1]): 10600 nM
inhibition at 0.05 h, 10 µM [2]: < 5%

Cc1cc(=O)oc2cc(OCCSC(=S)N3CCCC3)ccc12
IC50 (Acetylcholinesterase [1]): 890 nM
inhibition at 0.05 h, 10 µM [2]: < 5%

Cc1cc(=O)oc2cc(OCCCCCCCCSC(=S)N3CCCCC3)ccc12
inhibition (Acetylcholinesterase [3]): < 5%
inhibition at 0.05 h, 10 µM [2]: < 5%

Cc1cc(=O)oc2cc(OCCSC(=S)N3CCN(C)CC3)ccc12
inhibition (Acetylcholinesterase [3]): 36.8%
inhibition at 0.05 h, 10 µM [2]: < 5%

Cc1cc(=O)oc2cc(OCCCCCSC(=S)N3CCCCC3)ccc12
IC50 (Acetylcholinesterase [1]): 210 nM
inhibition at 0.05 h, 10 µM [2]: 10.1%

Cc1cc(=O)oc2cc(OCCSC(=S)N3CCN(c4ncccn4)CC3)ccc12
inhibition (Acetylcholinesterase [3]): 12.3%
inhibition at 0.05 h, 10 µM [2]: < 5%

Cc1cc(=O)oc2cc(OCCSC(=S)N3CCCCC3)ccc12
IC50 (Acetylcholinesterase [1]): 470 nM
inhibition at 0.05 h, 10 µM [2]: 37.2%

Cc1cc(=O)oc2cc(OCCCSC(=S)N3CCCCC3)ccc12
IC50 (Acetylcholinesterase [1]): 290 nM
inhibition at 0.05 h, 10 µM [2]: 31.2%

Cc1cc(=O)oc2cc(OCCSC(=S)N3CCN(C4CC4)CC3)ccc12
inhibition (Acetylcholinesterase [3]): 18.7%
inhibition at 0.05 h, 10 µM [2]: < 5%

Cc1cc(=O)oc2cc(OCCSC(=S)N3CCOCC3)ccc12
inhibition (Acetylcholinesterase [3]): 11%
inhibition at 0.05 h, 10 µM [2]: < 5%

Cc1cc(=O)oc2cc(OCCCCCCSC(=S)N3CCCCC3)ccc12
IC50 (Acetylcholinesterase [1]): 610 nM
inhibition at 0.05 h, 10 µM [2]: 6.21%

Cc1cc(=O)oc2cc(OCCCCSC(=S)N3CCCCC3)ccc12
IC50 (Acetylcholinesterase [1]): 27 nM
inhibition at 0.05 h, 10 µM [2]: 15.3%
Ratio IC50 (Acetylcholinesterase [4]): 1.5
Ki (Acetylcholinesterase [5]): 37.1 nM
Activity [6]: Active
Ka [7]: 1.69 ×10³ /M
viability at 24 h, 12.5 µM [8]: 99.2%
viability at 24 h, 25 µM [9]: 101%
viability at 24 h, 50 µM [10]: 90.1%
viability at 24 h, 100 µM [11]: 80.3%
Activity (Mus musculus [12]): Non-Toxic
Activity (Mus musculus [13]): Non-Toxic
Activity (Mus musculus [14]): Non-Toxic
Activity (Mus musculus [15]): Non-Toxic
Activity (Mus musculus [16]): Non-Toxic
Activity (Mus musculus [17]): Non-Toxic
Activity (Mus musculus [18]): Non-Toxic
Activity (Mus musculus [19]): Dose-dependent effect
Activity (Mus musculus [20]): Dose-dependent effect
Time (Mus musculus [21]): 192 s
Time (Mus musculus [22]): 182 s
Time (Mus musculus [23]): 151 s
inhibition (Acetylcholinesterase [24]): Active
Activity [25]: inactive
Activity [26]: inactive
Activity [27]: inactive
Papp at 16 h, 25 ug/ml (in vitro): 9.21 ×10⁻⁶ cm/s

Cc1cc(=O)oc2cc(OCCSC(=S)N(CCO)CCO)ccc12
inhibition (Acetylcholinesterase [3]): 34.5%
inhibition at 0.05 h, 10 µM [2]: < 5%

Cc1cc(=O)oc2cc(OCCSC(=S)N3CCC(O)CC3)ccc12
inhibition (Acetylcholinesterase [3]): < 5%
inhibition at 0.05 h, 10 µM [2]: < 5%

Cc1cc(=O)oc2cc(OCCSC(=S)N3CCN(C(C)C)CC3)ccc12
IC50 (Acetylcholinesterase [1]): 1990 nM
inhibition at 0.05 h, 10 µM [2]: 28.1%

Cc1cc(=O)oc2cc(OCCSC(=S)N3CCC(N4CCCCC4)CC3)ccc12
IC50 (Acetylcholinesterase [1]): 1160 nM
inhibition at 0.05 h, 10 µM [2]: 24.3%
